From US20250332265A1, “PSMA TARGETED CONJUGATE COMPOUNDS AND USES THEREOF” (priority 2021, published 2025) come the findings set out here.

Data set [1] can be described thus: Stability in mouse plasma. In kind it is in vitro ADME. From the text: To synthesize PSMA-1-MMAE-IR700 (FIG. 6A), we used a self-immolative cathespsin cleavable Vc linker to conjugate MMAE to PSMA-1-Cys-C6-Lys. IR700 was conjugated to the PSMA-1 ligand through reaction of the Lys amine (—NH2) with NHS ester as no IR700 release is required for light activation. […] Degradation of PSMA-1-MMAE-IR700 led to release of free MMAE.

Data set [2] concerns PSMA-positive PC3pip cells. The data set is described as follows: In vitro uptake studies, Example 2, PC3pip. In kind it is cell-based, human. The conditions noted are these: 50 nM. How it is done:
Enzymatic cleavage study of PSMA-1-MMAE-IR700 was performed as previously described. PSMA-1-MMAE-IR700 was incubated with activated human liver cathespin (Anthens Research and Technology, Anthens, GA) at 37° C. At different incubation time, 40 μL of the solution was placed into tubes loaded with 1 μL of 1 mM E64 protease inhibitor. The mixture was vortexed and then stored at −80° C. for future HPLC analysis. Studies were performed in triplicate. In vitro cellular uptake studies cells were plated on coverslips at about 60-70% confluency. Twenty-four hours later, cells were incubated with 50 nM of PSMA-1-MMAE-IR700. After incubation for various times (15 min, 30 min, 1 h and 4 h), cells were washed twice with cold RPMI 1640, fixed with 4% paraformaldehyde and counterstained with 4′,6-diamidino-2-phenylindole (DAPI). Images were taken using a Leica DM4000B fluorescence microscope (Leica Biosystems, Buffalo Gove, IL) at 40×. Blocking experiments were performed by co-incubation of cells with 50 nM of PSMA-1-MMAE-IR700 and 100× of PSMA-1 ligand. Studies were performed in triplicate.

By half-life is commonly meant the time needed for the level to fall by half in the phase considered. A low value points to rapid decline. Take `CC[C@H](C)[C@@H]([C@@H](CC(=O)N1CCC[C@H]1[C@H](OC)[C@@H](C)C(=O)N[C@H](C)[C@@H](O)c1ccccc1)OC)N(C)C(=O)[C@@H](NC(=O)[C@H](C(C)C)N(C)C(=O)OCc1ccc(NC(=O)[C@H](CCCNC(N)=O)NC(=O)[C@@H](NC(=O)CCCCCN2C(=O)CC(SC[C@H](NC(=O)[C@H](CCC(=O)O)NC(=O)[C@H](CCC(=O)O)NC(=O)[C@H](CCC(=O)O)NC(=O)CCCCCNC(=O)[C@H]3CC[C@H](CNC(=O)CC[C@H](NC(=O)N[C@@H](CCC(=O)O)C(=O)O)C(=O)O)CC3)C(=O)NCCCCCC(=O)N[C@@H](CCCCNC(=O)CCCCCNC(=O)OCCCOc3cccc4c5n6c(c34)=NC3=NC(=Nc4c7ccccc7c(n4[Si]6(O[Si](C)(C)CCC[N+](CCCS(=O)(=O)[O-])(CCCS(=O)(=O)O)CCCS(=O)(=O)O)O[Si](C)(C)CCC[N+](CCCS(=O)(=O)[O-])(CCCS(=O)(=O)O)CCCS(=O)(=O)O)N=C4N=C(N=5)c5ccccc54)c4ccccc43)C(N)=O)C2=O)C(C)C)cc1)C(C)C` (stereo partly drawn) [PSMA-1-MMAE-IR700]: in data set [1], the half-life is 17.2 ± 2.8 h. Moreover, the “fluorescence signal (uptake) in PC3pip cells” value in data set [2] is “observed as early as 15 min”. Besides, in data set [2] (co-incubation), the “fluorescence signal in PC3pip cells with 100× of PSMA-1 ligand” value is reported as “completely blocked”.
